Test results from patent US7355074B2, “Compounds having aromatic rings and side-chain amide-functionality and a method for transporting monovalent anions across biological membranes using the same” (The University of Maryland, priority 2003, dated 2008).

How the values were obtained:
[1] = pH-stat fluorescent transport assay with oligophenoxyacetamides (HPTS-loaded liposomes); type: biochemical
Description: FIGS. 1A and 1B are derived from of pH-stat fluorescent assays with oligophenoxyacetamide compounds 1-6 described herein. Suspensions of EYPC LUVs containing the pH sensitive dye pyranine (ex 405 nm and 460 nm em 510 nm) in a phosphate buffer were used (0.5 mM of lipid, 10 mM NanH3-nPO4 n=1, 2, pH 6.4 100 mM NaCl inside and outside) (A) illustrates initial pseudo-first order rate constants in the presence of 5 μm of ionophores 1-6 (1 mol % injection of 20 μl of 0.5 mM DMSO solution of 1-6 into 1.9 mL of vesicular suspension was followed by injection of 21 μl of 0.5 M NaOH and final lysis of liposomes with Triton X-100; (B) illustrates initial pseudo-first order rate constants assessed for various concentrations of oligomeric ionophores 2-6. The same experimental protocol as in (A) was used. Legend for traces denotes use of oligocompounds 2, 3, 4, 5, 6.
Liposome Preparation for Fluorimetric Assays. Egg yolk L-α-phosphatidylcholine (EYPC ethanol solution, […], 79 μmol) was dissolved in a CHCl3/MeOH mixture, the solution was evaporated under reduced pressure and the resulting thin film was dried under high vacuum for 2 h. The lipid film was hydrated in 1.2 mL of phosphate buffer (10 mM sodium phosphate, pH=6.4, 75-100 mM MnX, M=N^+, K^+, X=Cl^−, SO4^2−, n=1,2) containing 10 μM HPTS (pyranine, 8-hydroxypyrene-1,3,6-trisulfonic acid trisodium salt) for 40 min. During hydration, the suspension was submitted to 5 freeze-thaw cycle (liquid nitrogen, water at rt). The large multilamellar liposome suspension (1 mL) was submitted to high-pressure extrusion at rt (21 extrusions through a 0.1 μm polycarbonate membrane afforded a suspension of LUVs with an average diameter of 100 nm). The LUV suspension was separated from extravesicular dye by size exclusion chromatography (SEC) (stationary phase: Sephadex G-10, mobile phase: phosphate buffer) and diluted with the same phosphate buffer to give a stock solution with a lipid concentration of 11 mM (assuming 100% of lipid was incorporated into liposomes).
pH-state transport assays. Typically, 100 μL of HPTS-loaded vesicles (stock solution) was suspended in 1.9 mL of the corresponding buffer and placed into a fluorimetric cell. The emission of HPTS at 510 nm was monitored with excitation wavelengths at 403 and 460 nm simultaneously. During the experiment, 20 μL of a 0-10 mM DMSO solution of the compounds of interest was added (through an injection port), followed by injection of 21 μL of 0.5 M aqueous NaOH. […] Maximal possible changes in dye emission were obtained at the end of each experiment by lysis of the liposomes with detergent (40 μL of 5% aqueous Triton X100). The final transport trace was obtained as a ratio of the emission intensities monitored at 460 and 403 nm and normalized to 100% of transport. Pseudo-first order rate constants were calculated from slopes of the plot of In([H^+ins]−[H^+out]) versus time, here [H^+ins] and [H^+out] are the intravesicular and extravesicular proton concentrations, respectively. The [H^+out] was assumed to remain constant over the course of the experiment, while [H^+ins] values were calculated for each point from the HPTS emission intensities according to the calibration equation pH=1.1684·log(Io/Il)+6.9807, where Io is the emission intensity with excitation at 460 nm and Il is emission intensity with excitation at 403 nm. The calibration was performed by measuring the HPTS emission intensities and the pH values of a […] HPTS solution in 10 mM phosphate buffer containing 100 mM NaCl (see FIG. s3). The absolute values for rate constants varied depending on the age of the vesicular solution and the actual stock solution of liposomes used.

35Cl NMR transport assay = type: biochemical; settings: vesicles with NaCl and Co2+ inside, Co2+-free Na2SO4 buffer outside; 2 mol %
Description: FIG. 2A illustrates ^35Cl NMR spectra of a suspension of giant vesicles (29 mM EYPC, 100 mM NaCl, 10 mM CoCl2, 10 mM NanH3-nPO4, n=1, 2 pH 5.3) suspended in 75 mM […] buffer (NanH3-nPO4, n=1, 2, pH spectra correspond to a) giant vesicles in the absence of 3, b) giant vesicles after application of 2 mol % 3 in DMSO, c) vesicles after lysis with Triton X-100.
Liposome Preparation for ^35Cl NMR Assays. Egg yolk L-α-phosphatidylcholine (1.0 mg/mL EYPC ethanol solution, 250 μL, […]) was dissolved in a CHCl3/MeOH mixture, the solution was evaporated under reduced pressure and the resulting thin film was dried under high vacuum for 2.5 h. The lipid film was hydrated in 1.0 mL of phosphate buffer (9:1 H2O:D2O, 10 mM sodium phosphate, pH=5.4, 100 mM NaCl) containing 10 mM CoCl2 (^35Cl shift reagent) for 40 min. During hydration, the suspension was submitted to 5 freeze-thaw cycles (liquid nitrogen, water at rt). The giant liposome suspension (1 mL) was submitted to high-pressure extrusion at rt (41 passes through a 5.0 μm polycarbonate membrane). […]
^35Cl NMR Measurements. All ^35Cl NMR spectra were recorded on a Bruker DRX500 instrument operating at 49.0023 MHz for the ^35Cl resonance and chemical shift values are reported in ppm relative to 25 mM NaCl in D2O at 0 ppm (external standard). […]

**Q.** What does the source list for `CCCCNC(=O)COc1ccccc1Cc1cccc(Cc2ccccc2OCC(=O)NCCCC)c1OCC(=O)NCCCC` [trimer 3, Tris-(N-butyl-2-phenoxyacetamide)]?
**A.** relative transport activity within the series 1-6 ([1]; 100 mM NaCl inside and outside): generally the most active; transport activity ([1]; 100 mM NaCl inside and outside, concentrations as low as 0.5 mol % (5 μm)): rapid exchange between extra- and intravesicular electrolytes; transport activity in liposomes symmetrically loaded with sodium sulfate ([1]; 10 mol % (50 μm)): no transport activity was detected; outward Cl− transport (35Cl NMR signal) (35Cl NMR transport assay): enhancement of the extravesicular Cl^− peak
